Laboratory results reported in PMC12030706, “Novel ^177Lu-Labeled [Thz^14]Bombesin(6–14) Derivatives with Low Pancreas Accumulation for Targeting Gastrin-Releasing Peptide Receptor-Expressing Cancer” (Pharmaceuticals, 2025).
Numbered stars: 1 amine (or outer) side, 2 acyl side, 3 side chain; on linkers, the order of the positions; unused ones are H or OH. Square brackets hold non-standard residues; d marks the D form. Peptide text beside a SMILES is read from it. * marks the point of attachment. DOTA = O=C(O)CN1CCN(CC(=O)O)CCN(CC(=O)*)CCN(CC(=O)O)CC1; NMeH = CN[C@@H](Cc1c[nH]cn1)C(=O)O; X1 = O=C(CN1CCC(N[*:1])CC1)[*:2]; Tle = CC(C)(C)[C@H](N)C(=O)O; Thz = O=C(O)[C@@H]1CSCN1

Experiments:
[1] = system: PC-3 tumor-bearing NRG mouse; assay: Longitudinal SPECT/CT imaging in PC-3 tumor-bearing mice; assay type: in vivo, mice (NRG); settings: SPECT/CT images
Protocol: The PC-3 tumor-bearing mice were sedated (2.5% isoflurane in O2) and injected with ^177Lu-labeled ligands (15–32 MBq) through a lateral caudal tail vein. […] At each time point, a 5 min CT scan was obtained using 615 μA and 60 kV parameters for localization and attenuation, followed by 2 × 30 min static SPECT scans acquired in list mode with an energy window centered around 208 keV. The MILabs U-SPECT II reconstruction software (version 8.00) was used to reconstruct data, and the images were decay corrected to the time of injection with PMOD v 3.402 (PMOD Technologies GmbH, Fallanden, Switzerland).

[2] = LogD7.4 measurement, shake flask method; assay type: physicochemical; settings: n-octanol/DPBS pH 7.4, n = 3
Protocol: The logD7.4 values of all the ^177Lu-labeled GRPR-targeted ligands were measured using the shake flask method as previously reported. An aliquot (~2 MBq) of the radiolabeled product was added to a mixture of n-octanol (3 mL) and DPBS (3 mL, pH 7.4), followed by 1 min vortexing and 15 min centrifugation at 5000 rpm. Samples of the n-octanol (1 mL) and buffer (1 mL) layers were collected, and the activity was counted using a gamma counter. The logD7.4 values were calculated using the following equation: logD7.4=log10[countsn−octanolphase/countsbutterphase]

[3] = Ex vivo biodistribution in PC-3 tumor-bearing mice; settings: mouse; for tissue to tissue ratio at 1 h / tissue to tissue ratio at 4 h / tissue to tissue ratio at 24 h / tissue to tissue ratio at 72 h / tissue to tissue ratio at 120 h: male, NOD.Cg-Rag1^tm1Mom Il2rg^tm1Wjl/SzJ (NRG), total radioactivity; for tissue to tissue ratio at 4 h / tissue uptake at 4 h: 4 h post-injection; for tissue to tissue ratio at 24 h / tissue uptake at 24 h: 24 h post-injection; for tissue to tissue ratio at 72 h / tissue uptake at 72 h: 72 h post-injection; for tissue to tissue ratio at 120 h / tissue uptake at 120 h: 120 h post-injection
Protocol: SPECT/CT imaging experiments were performed using an MILabs (Houten, The Netherlands) U-SPECT-II/CT scanner with a custom-made ultra-high-sensitivity big mouse collimator (2 mm pinhole size) following previously reported procedures. […] Male NOD.Cg-Rag1^tm1Mom Il2rg^tm1Wjl/SzJ (NRG) mice were used in these experiments because of their immunodeficient characteristics and excellent radiation tolerance. Mice were anaesthetized and subcutaneously implanted with 5 × 10^6 PC-3 prostate cancer cells (100 µL; 1:1 PBS/Matrigel) behind the left shoulder. SPECT/CT imaging and biodistribution studies were performed once the tumors reached a diameter of 5–8 mm, typically after approximately 4 weeks of growth.
For ex vivo biodistribution studies, the mice were injected with ~2–6 MBq of the radioligand. […] Blocking study was conducted at 1 h post-injection via co-injection of the radioligand with 100 μg of [D-Phe^6,Leu-NHEt^13,des-Met^14]Bombesin(6–14). Organs/tissues of interested were collected, weighed, and measured using an automatic gamma counter.

[4] = tumor/blood, Tumor/blood uptake ratio
[5] = tumor/kidney, Tumor/kidney uptake ratio
[6] = tumor/muscle, Tumor/muscle uptake ratio
[7] = tumor/pancreas, Tumor/pancreas uptake ratio
[8] = PC-3 tumor, Uptake in PC-3 tumor
[9] = adrenal glands, Uptake in adrenal glands

CC(C)C[C@H](NC(=O)[C@H](Cc1cnc[nH]1)N(C)C(=O)CNC(=O)[C@@H](NC(=O)[C@H](C)NC(=O)[C@H](Cc1c[nH]c2ccccc12)NC(=O)[C@H](Cc1c[nH]cn1)NC(=O)[C@@H](Cc1ccccc1)NC(=O)CN1CCC(NC(=O)CN2CCN(CC(=O)O)CCN(CC(=O)O)CCN(CC(=O)O)CC2)CC1)C(C)(C)C)C(=O)N1CSC[C@H]1C(N)=O [[^177Lu]Lu-LW01142, metal not drawn] ({DOTA}-[X1][dF]HWA[Tle]G[NMeH]L[Thz]-NH2)
excretion pathway [1]: excreted mainly via the renal pathway
logD [2]: -2.28 ± 0.14
tissue to tissue ratio at 1 h ([3]; tumor/blood, Tumor/blood uptake ratio, 1 h blocked (co-injected with 100 µg [D-Phe6,Leu-NHEt13,des-Met14]Bombesin(6-14))): 3.91 ± 0.87
tissue to tissue ratio at 1 h ([3]; tumor/blood, Tumor/blood uptake ratio, 1 h post-injection): 8.08 ± 0.92
tissue to tissue ratio at 4 h [3, 4]: 162 ± 52
tissue to tissue ratio at 24 h [3, 4]: 841 ± 162
tissue to tissue ratio at 72 h [3, 4]: 1620 ± 500
tissue to tissue ratio at 120 h [3, 4]: 1800 ± 724
tissue to tissue ratio at 1 h ([3]; tumor/kidney, Tumor/kidney uptake ratio, 1 h blocked (co-injected with 100 µg [D-Phe6,Leu-NHEt13,des-Met14]Bombesin(6-14))): 0.7 ± 0.15
tissue to tissue ratio at 1 h ([3]; tumor/kidney, Tumor/kidney uptake ratio, 1 h post-injection): 1.95 ± 0.04
tissue to tissue ratio at 4 h [3, 5]: 2.14 ± 0.26
tissue to tissue ratio at 24 h [3, 5]: 2.88 ± 0.84
tissue to tissue ratio at 72 h [3, 5]: 7.34 ± 1.83
tissue to tissue ratio at 120 h [3, 5]: 7.46 ± 1.11
tissue to tissue ratio at 1 h ([3]; tumor/muscle, Tumor/muscle uptake ratio, 1 h blocked (co-injected with 100 µg [D-Phe6,Leu-NHEt13,des-Met14]Bombesin(6-14))): 25.2 ± 10.1
tissue to tissue ratio at 1 h ([3]; tumor/muscle, Tumor/muscle uptake ratio, 1 h post-injection): 60.1 ± 5.97
tissue to tissue ratio at 4 h [3, 6]: 454 ± 53.3
tissue to tissue ratio at 24 h [3, 6]: 672 ± 161
tissue to tissue ratio at 72 h [3, 6]: 736 ± 189
tissue to tissue ratio at 120 h [3, 6]: 588 ± 92.8
tissue to tissue ratio at 1 h ([3]; tumor/pancreas, Tumor/pancreas uptake ratio, 1 h blocked (co-injected with 100 µg [D-Phe6,Leu-NHEt13,des-Met14]Bombesin(6-14))): 2.79 ± 0.69
tissue to tissue ratio at 1 h ([3]; tumor/pancreas, Tumor/pancreas uptake ratio, 1 h post-injection): 3.06 ± 0.45
tissue to tissue ratio at 4 h [3, 7]: 7.53 ± 0.35
tissue to tissue ratio at 24 h [3, 7]: 6.78 ± 0.88
tissue to tissue ratio at 72 h [3, 7]: 6.18 ± 0.6
tissue to tissue ratio at 120 h [3, 7]: 4.08 ± 1
tissue uptake at 1 h ([3]; PC-3 tumor, 100 ug, Uptake in PC-3 tumor, 1 h blocked (co-injected with 100 µg [D-Phe6,Leu-NHEt13,des-Met14]Bombesin(6-14))): 5.03 ± 0.43 %ID/g
tissue uptake at 1 h ([3]; PC-3 tumor, Uptake in PC-3 tumor, 1 h post-injection): 13.4 ± 1.48 %ID/g
tissue uptake at 4 h [3, 8]: 11.8 ± 2.24 %ID/g
tissue uptake at 24 h [3, 8]: 7.07 ± 1.23 %ID/g
tissue uptake at 72 h [3, 8]: 4.18 ± 0.6 %ID/g
tissue uptake at 120 h [3, 8]: 2.25 ± 0.71 %ID/g
tissue uptake at 1 h ([3]; adrenal glands, 100 ug, Uptake in adrenal glands, 1 h blocked (co-injected with 100 µg [D-Phe6,Leu-NHEt13,des-Met14]Bombesin(6-14))): 0.75 ± 0.33 %ID/g
tissue uptake at 1 h ([3]; adrenal glands, Uptake in adrenal glands, 1 h post-injection): 1.43 ± 0.5 %ID/g
tissue uptake at 4 h [3, 9]: 0.59 ± 0.06 %ID/g
tissue uptake at 24 h [3, 9]: 0.41 ± 0.08 %ID/g
tissue uptake at 72 h [3, 9]: 0.2 ± 0.05 %ID/g
tissue uptake at 1 h ([3]; blood, 100 ug, Uptake in blood, 1 h blocked (co-injected with 100 µg [D-Phe6,Leu-NHEt13,des-Met14]Bombesin(6-14))): 1.34 ± 0.35 %ID/g
tissue uptake at 1 h ([3]; blood, Uptake in blood, 1 h post-injection): 1.67 ± 0.21 %ID/g
tissue uptake at 4 h ([3]; blood, Uptake in blood): 0.08 ± 0.01 %ID/g
tissue uptake at 24 h ([3]; blood, Uptake in blood): 0.01 %ID/g
tissue uptake at 1 h ([3]; bone, 100 ug, Uptake in bone, 1 h blocked (co-injected with 100 µg [D-Phe6,Leu-NHEt13,des-Met14]Bombesin(6-14))): 0.13 ± 0.03 %ID/g
tissue uptake at 4 h ([3]; bone, Uptake in bone): 0.03 ± 0.01 %ID/g
tissue uptake at 24 h ([3]; bone, Uptake in bone): 0.03 ± 0.01 %ID/g
tissue uptake at 72 h ([3]; bone, Uptake in bone): 0.03 ± 0.01 %ID/g
tissue uptake at 120 h ([3]; bone, Uptake in bone): 0.02 ± 0.01 %ID/g
tissue uptake at 1 h ([3]; brain, 100 ug, Uptake in brain, 1 h blocked (co-injected with 100 µg [D-Phe6,Leu-NHEt13,des-Met14]Bombesin(6-14))): 0.03 ± 0.01 %ID/g
tissue uptake at 1 h ([3]; brain, Uptake in brain, 1 h post-injection): 0.03 ± 0.01 %ID/g
tissue uptake at 4 h ([3]; brain, Uptake in brain): 0.01 %ID/g
tissue uptake at 1 h ([3]; fat, 100 ug, Uptake in fat, 1 h blocked (co-injected with 100 µg [D-Phe6,Leu-NHEt13,des-Met14]Bombesin(6-14))): 0.14 ± 0.04 %ID/g
tissue uptake at 1 h ([3]; fat, Uptake in fat, 1 h post-injection): 0.11 ± 0.04 %ID/g
tissue uptake at 4 h ([3]; fat, Uptake in fat): 0.02 ± 0.01 %ID/g
tissue uptake at 24 h ([3]; fat, Uptake in fat): 0.01 %ID/g
tissue uptake at 72 h ([3]; fat, Uptake in fat): 0.01 %ID/g
tissue uptake at 1 h ([3]; heart, 100 ug, Uptake in heart, 1 h blocked (co-injected with 100 µg [D-Phe6,Leu-NHEt13,des-Met14]Bombesin(6-14))): 0.43 ± 0.14 %ID/g
tissue uptake at 1 h ([3]; heart, Uptake in heart, 1 h post-injection): 0.45 ± 0.06 %ID/g
tissue uptake at 24 h ([3]; heart, Uptake in heart): 0.02 ± 0.01 %ID/g
tissue uptake at 72 h ([3]; heart, Uptake in heart): 0.02 %ID/g
tissue uptake at 120 h ([3]; heart, Uptake in heart): 0.01 %ID/g
tissue uptake at 1 h ([3]; kidneys, 100 ug, Uptake in kidneys, 1 h blocked (co-injected with 100 µg [D-Phe6,Leu-NHEt13,des-Met14]Bombesin(6-14))): 7.44 ± 1.71 %ID/g
tissue uptake at 24 h ([3]; kidneys, Uptake in kidneys): 2.64 ± 0.94 %ID/g
tissue uptake at 72 h ([3]; kidneys, Uptake in kidneys): 0.6 ± 0.17 %ID/g
